# Reference: patent US20250019382A1, “NOVEL INHIBITORS OF CYCLIN-DEPENDENT KINASES” (Origenis Gmbh, priority 2021, published 2025)
# What was measured:
# [1] = target: T1, CDK2/cyclin A (Homo sapiens, UniProt P24941); experiment: CDK2/cyclin A Z'-LYTE (SelectScreen); format: biochemical; settings: duplicate, averaged
# T1 construct: purchased Invitrogen Ltd., Paisley, UK (SelectScreen service)
# Experimental: (§1) The CDK2 inhibitory activity of the compounds of the invention was measured in combination with different […] and assay systems. The SelectScreen™ assessment of the kinase inhibitory activity of CDK2 data point was performed in duplicate and averaged data is reported here. The SelectScreen™ kinase inhibitor assay service was used (Invitrogen Ltd., Paisley, UK) to investigate the ability of the compounds of the invention to inhibit CDK2 in dose dependent manner using ten inhibitor concentrations from 10 micromolar down to […] in half-logarithmic steps. The inhibitor concentration was plotted against the percent inhibition or displacement to determine the IC50 using XLFit 5.5 (IDBS, Guildford) to fit to a sigmoidal dose response curve with a variable slope.
# [2] = target: T2, CDK2/cyclin A1 (Homo sapiens, UniProt P24941); experiment: CDK2/cyclin A1 LanthaScreen (SelectScreen), second list; format: binding; settings: second list under the same heading; duplicate, averaged
# T2 construct: purchased Invitrogen Ltd., Paisley, UK (SelectScreen service)
# Experimental: as §1
# [3] = target: T2, CDK2/cyclin A1; experiment: CDK2/cyclin A1 LanthaScreen (SelectScreen); format: binding; settings: first list; duplicate, averaged
# Experimental: as §1
# [4] = target: T3, CDK2/cyclin E1 (Homo sapiens, UniProt P24941); experiment: CDK2/cyclin E1 LanthaScreen (SelectScreen); format: binding; settings: duplicate, averaged
# T3 construct: purchased Invitrogen Ltd., Paisley, UK (SelectScreen service)
# Experimental: as §1
# [5] = target: T4, CDK9/CyclinT1 (Homo sapiens, UniProt P50750); experiment: CDK9/T1 ADPGlo kinase assay; format: biochemical; settings: CDK9/CyclinT1 6 nM, ATP 10 microM, PDKtide 40 microM, 120 min RT
# T4 construct: purchased ProQinase/Reaction Biology, USA #0371-0345-1
# T4 sequence (P50750 whole entry): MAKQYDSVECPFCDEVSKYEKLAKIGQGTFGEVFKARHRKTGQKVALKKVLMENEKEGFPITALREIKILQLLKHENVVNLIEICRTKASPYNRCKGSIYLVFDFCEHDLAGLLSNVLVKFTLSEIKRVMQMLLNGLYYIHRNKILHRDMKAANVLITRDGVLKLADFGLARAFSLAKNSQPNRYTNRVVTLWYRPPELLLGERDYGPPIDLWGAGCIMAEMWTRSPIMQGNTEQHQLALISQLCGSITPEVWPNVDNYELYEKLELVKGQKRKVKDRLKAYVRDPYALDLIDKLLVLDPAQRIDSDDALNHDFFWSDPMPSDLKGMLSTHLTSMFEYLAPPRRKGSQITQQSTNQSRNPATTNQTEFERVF
# T4 sequence (O60563 whole entry partner): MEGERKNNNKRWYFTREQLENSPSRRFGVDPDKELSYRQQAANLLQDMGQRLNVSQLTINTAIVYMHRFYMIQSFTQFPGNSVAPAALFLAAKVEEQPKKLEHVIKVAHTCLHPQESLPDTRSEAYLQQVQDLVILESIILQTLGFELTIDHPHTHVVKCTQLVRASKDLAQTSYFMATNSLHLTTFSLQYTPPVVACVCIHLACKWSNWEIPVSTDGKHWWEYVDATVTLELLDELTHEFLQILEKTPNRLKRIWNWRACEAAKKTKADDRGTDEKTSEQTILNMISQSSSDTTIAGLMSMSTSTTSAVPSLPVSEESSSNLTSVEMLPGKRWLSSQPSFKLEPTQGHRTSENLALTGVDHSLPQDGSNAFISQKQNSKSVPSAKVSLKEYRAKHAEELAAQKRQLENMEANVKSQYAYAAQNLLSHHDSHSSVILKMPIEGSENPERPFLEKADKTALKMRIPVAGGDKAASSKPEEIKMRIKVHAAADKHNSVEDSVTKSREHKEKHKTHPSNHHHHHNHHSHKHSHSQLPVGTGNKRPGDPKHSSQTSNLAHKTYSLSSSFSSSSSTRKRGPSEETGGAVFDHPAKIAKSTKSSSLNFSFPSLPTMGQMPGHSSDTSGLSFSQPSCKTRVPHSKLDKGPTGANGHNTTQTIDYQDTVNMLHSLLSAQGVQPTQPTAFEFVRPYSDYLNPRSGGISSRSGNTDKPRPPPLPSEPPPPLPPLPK
# Experimental: The testing compound was evaluated in 12 concentrations in a 1:3 dilution series, starting from 5microM as the highest concentration.
# In a white 384 microplate (Greiner bio-one, Austria #784904,) with 2 microL of 3-fold concentrated CDK9/CyclinT1 (ProQinase/Reaction Biology, USA #0371-0345-1, LOT.: 012), final concentration (f.c.) 6 nM, in 1×kinase buffer, 2 microL of compound (3× fold concentrated in f.c. 1.66% DMSO/H2O) was added and incubated at Room Temperature (RT) for 10 min. Then 2 microL of Substrate/ATP-Mix (3×PDKtide f.c. 40 microM, SignalChem Biotech, Canada via Biozol, Eching, Germany #P10-58, LOT.: L2230-7 and 3×UltraPure ATP f.c. 10 microM (ADP Glo Kinase assay, Promega GmbH, Germany #V9102)) were added, mixed and incubated for 120 min at RT.
# After incubation time, 5 microL of ADP Glo reagent (ready to use, ADP Glo Kinase assay, Promega GmbH, Germany #V9102) were added, mixed and incubated for 40 min at RT.
# In the last step, 10 microL of ADP Glo Detection reagent (ready to use, ADP Glo Kinase assay, Promega GmbH, Germany #V9102) were added, mixed and incubated for 30 min at RT.
# GloMax Discover GM3000 Reader (Promega GmbH, Germany 9700000249) was used for the readout.
# The inhibitor concentration was plotted against the luminescence to determine the IC50 using XLFit 5.5 (IDBS, Guildford) to fit to a sigmoidal dose response curve with a variable slope.
IC50 [5],SMILES,other results
< 200 nM,"COCCNC1CCC(Nc2nc(-c3c(F)cccc3F)nc3c(Cl)cnn23)CC1 (centres unmarked) [Example #124, (1r,4r)-N1-(8-chloro-2-(2,6-difluorophenyl)pyrazolo[1,5-a][1,3,5]triazin-4-yl)-N4-(2-methoxyethyl)cyclohexane-1,4-diamine]",IC50 [1]: < 1000 nM; IC50 [2]: < 200 nM; IC50 [3]: < 1000 nM; IC50 [4]: < 200 nM
< 20 nM,"Fc1cccc(F)c1-c1nc(N[C@H]2CC[C@H](N3CCOCC3)CC2)n2ncc(Cl)c2n1 [Example #89, 8-chloro-2-(2,6-difluorophenyl)-N-((1r,4r)-4-morpholinocyclohexyl)pyrazolo[1,5-a][1,3,5]triazin-4-amine]",IC50 [1]: < 1000 nM; IC50 [2]: < 200 nM; IC50 [3]: < 1000 nM; IC50 [4]: < 200 nM
< 20 nM,"Fc1cccc(F)c1-c1nc(N[C@H]2CC[C@H](N3CCCCC3)CC2)n2ncc(Cl)c2n1 [Example #110, 8-chloro-2-(2,6-difluorophenyl)-N-((1r,4r)-4-(piperidin-1-yl)cyclohexyl)pyrazolo[1,5-a][1,3,5]triazin-4-amine]",IC50 [1]: < 1000 nM; IC50 [2]: < 200 nM; IC50 [3]: < 200 nM; IC50 [4]: < 200 nM
< 200 nM,"C#Cc1cnn2c(N[C@H]3CC[C@H](N4CCOCC4)CC3)nc(-c3c(F)cccc3F)nc12 [Example #139, 2-(2,6-difluorophenyl)-8-ethynyl-N-((1r,4r)-4-morpholinocyclohexyl)pyrazolo[1,5-a][1,3,5]triazin-4-amine]",
< 200 nM,"Fc1cccc(F)c1-c1nc(N[C@H]2CC[C@H](N3CCOCC3)CC2)n2ncc(I)c2n1 [Example #140, 2-(2,6-difluorophenyl)-8-iodo-N-((1r,4r)-4-morpholinocyclohexyl)pyrazolo[1,5-a][1,3,5]triazin-4-amine]",
< 200 nM,"N[C@H]1CC[C@@H](Nc2nc(-c3c(F)cccc3F)nc3c(Cl)cnn23)CC1 [Example #112, (1s,4s)-N1-(8-chloro-2-(2,6-difluorophenyl)pyrazolo[1,5-a][1,3,5]triazin-4-yl)cyclohexane-1,4-diamine]",
< 20 nM,"NC1CC(Nc2nc(-c3c(F)cccc3F)nc3c(Cl)cnn23)C1 (centres unmarked) [Example #129, (1r,3r)-N1-(8-chloro-2-(2,6-difluorophenyl)pyrazolo[1,5-a][1,3,5]triazin-4-yl)cyclobutane-1,3-diamine]",
< 20 nM,"N[C@H]1CC[C@H](Nc2nc(-c3c(F)cccc3F)nc3c(C(F)(F)F)cnn23)CC1 [Example #118, (1r,4r)-N1-(2-(2,6-difluorophenyl)-8-(trifluoromethyl)pyrazolo[1,5-a][1,3,5]triazin-4-yl)cyclohexane-1,4-diamine]",
< 1000 nM,"O=C(NCC(F)(F)F)c1ccc(Nc2nc(-c3c(F)cccc3Cl)nc3ccnn23)cc1 [Example #22, 4-((2-(2-chloro-6-fluorophenyl)pyrazolo[1,5-a][1,3,5]triazin-4-yl)amino)-N-(2,2,2-trifluoroethyl)benzamide]",
< 1000 nM,"O=C(c1ccc(Nc2nc(-c3c(F)cccc3F)nc3c(Cl)cnn23)cc1)N1CCOCC1 [Example #98, (4-((8-chloro-2-(2,6-difluorophenyl)pyrazolo[1,5-a][1,3,5]triazin-4-yl)amino)phenyl)(morpholino)methanone]",
< 200 nM,"Fc1cccc(F)c1-c1nc(Nc2cnn(C3CCN(C4CCOCC4)CC3)c2)n2nccc2n1 [Example #67, 2-(2,6-difluorophenyl)-N-(1-(1-(tetrahydro-2H-pyran-4-yl)piperidin-4-yl)-1H-pyrazol-4-yl)pyrazolo[1,5-a][1,3,5]triazin-4-amine]",
< 200 nM,"Fc1cccc(F)c1-c1nc(Nc2cnn(C3CCN(C4CC4)CC3)c2)n2nccc2n1 [Example #83, N-(1-(1-cyclopropylpiperidin-4-yl)-1H-pyrazol-4-yl)-2-(2,6-difluorophenyl)pyrazolo[1,5-a][1,3,5]triazin-4-amine]",
< 1000 nM,"Fc1cccc(F)c1-c1nc(Nc2cnn(C3CCN(C4CCOCC4)CC3)c2Cl)n2nccc2n1 [Example #73, N-(5-chloro-1-(1-(tetrahydro-2H-pyran-4-yl)piperidin-4-yl)-1H-pyrazol-4-yl)-2-(2,6-difluorophenyl)pyrazolo[1,5-a][1,3,5]triazin-4-amine]",
< 20 nM,"CN(CCCO)C1CCC(Nc2nc(-c3c(F)cccc3F)nc3c(Cl)cnn23)CC1 (centres unmarked) [Example #134, 3-({4-[8-Chloro-2-(2,6-difluoro-phenyl)-pyrazolo[1,5-a][1,3,5]triazin-4-ylamino]-cyclohexyl}-methyl-amino)-propan-1-ol]",
< 200 nM,"Fc1cccc(F)c1-c1nc(NC2CCC(N3CCOCC3)CC2)n2ncc(C(F)(F)F)c2n1 (centres unmarked) [Example #111, 2-(2,6-difluorophenyl)-N-((1r,4r)-4-morpholinocyclohexyl)-8-(trifluoromethyl)pyrazolo[1,5-a][1,3,5]triazin-4-amine]",
< 20 nM,"CN(C)[C@@H]1CC[C@@H](Nc2nc(-c3c(F)cccc3F)nc3c(Cl)cnn23)C1 [Example #119, (1R,3R)-N1-(8-chloro-2-(2,6-difluorophenyl)pyrazolo[1,5-a][1,3,5]triazin-4-yl)-N3,N3-dimethylcyclopentane-1,3-diamine]",
< 200 nM,"CN1CCC(N2CCC(n3cc(Nc4nc(-c5c(F)cccc5F)nc5ccnn45)cn3)CC2)CC1 [Example #66, 2-(2,6-difluorophenyl)-N-(1-(1′-methyl-[1,4′-bipiperidin]-4-yl)-1H-pyrazol-4-yl)pyrazolo[1,5-a][1,3,5]triazin-4-amine]",
< 1000 nM,"Fc1cccc(F)c1-c1nc(N[C@H]2CC[C@@H](N3CCCCC3)CC2)n2ncc(Cl)c2n1 [Example #113, 8-chloro-2-(2,6-difluorophenyl)-N-((1s,4s)-4-(piperidin-1-yl)cyclohexyl)pyrazolo[1,5-a][1,3,5]triazin-4-amine]",
< 200 nM,"CC(C)(C)N1CCN(c2ccc(Nc3nc(-c4c(F)cccc4F)nc4c(Cl)cnn34)cc2)CC1 [Example #97, N-(4-(4-(tert-butyl)piperazin-1-yl)phenyl)-8-chloro-2-(2,6-difluorophenyl)pyrazolo[1,5-a][1,3,5]triazin-4-amine]",
< 20 nM,"Fc1cccc(F)c1-c1nc(NC2CCC(N3CCCC3)CC2)n2ncc(Cl)c2n1 (centres unmarked) [Example #138, 8-chloro-2-(2,6-difluorophenyl)-N-((1r,4r)-4-(pyrrolidin-1-yl)cyclohexyl)pyrazolo[1,5-a][1,3,5]triazin-4-amine]",
< 20 nM,"Fc1cccc(F)c1-c1nc(Nc2cnn(C3CCN(C4CCOCC4)CC3)c2)n2ncc(Cl)c2n1 [Example #92, 8-chloro-2-(2,6-difluorophenyl)-N-(1-(1-(tetrahydro-2H-pyran-4-yl)piperidin-4-yl)-1H-pyrazol-4-yl)pyrazolo[1,5-a][1,3,5]triazin-4-amine]",
< 1000 nM,"CC(C)(C)N1CCN(c2ccc(Nc3nc(-c4ccccc4F)nc4ccnn34)cc2)CC1 [Example #54, N-(4-(4-(tert-butyl)piperazin-1-yl)phenyl)-2-(2-fluorophenyl)pyrazolo[1,5-a][1,3,5]triazin-4-amine]",
< 200 nM,"Fc1cccc(Cl)c1-c1nc(Nc2cnn(C3CCN(C4CCOCC4)CC3)c2)n2nccc2n1 [Example #71, 2-(2-chloro-6-fluorophenyl)-N-(1-(1-(tetrahydro-2H-pyran-4-yl)piperidin-4-yl)-1H-pyrazol-4-yl)pyrazolo[1,5-a][1,3,5]triazin-4-amine]",
< 200 nM,"FCCN1CCC(n2cc(Nc3nc(-c4c(F)cccc4F)nc4ccnn34)cn2)CC1 [Example #81, 2-(2,6-difluorophenyl)-N-(1-(1-(2-fluoroethyl)piperidin-4-yl)-1H-pyrazol-4-yl)pyrazolo[1,5-a][1,3,5]triazin-4-amine]",
< 20 nM,"CCN(CCO)CCCC(C)Nc1nc(-c2c(F)cccc2F)nc2c(Cl)cnn12 (centres unmarked) [Example #107, 2-((4-((8-chloro-2-(2,6-difluorophenyl)pyrazolo[1,5-a][1,3,5]triazin-4-yl)amino)pentyl)(ethyl)amino)ethan-1-ol]",
< 20 nM,"CN1CCN([C@H]2CC[C@H](Nc3nc(-c4c(F)cccc4F)nc4c(Cl)cnn34)CC2)CC1 [Example #144, 8-chloro-2-(2,6-difluorophenyl)-N-((1r,4r)-4-(4-methylpiperazin-1-yl)cyclohexyl)pyrazolo[1,5-a][1,3,5]triazin-4-amine]",
